Results taken from patent US20230002439A1, “CRYSTALLINE FORMS OF VAMOROLONE” (ReveraGen BioPharma, Inc., priority 2021, published 2023).
Each block holds one molecule with its values, some of them ahead of it.

Experiments:
[1] = DSC thermal treatment and hot-stage pXRD (Form II vs. Form I); format: physicochemical
Method: The melting of vamorolone was performed in a DSC apparatus at a heating rate of 10° C./min. The DSC furnace was programmed to cool at 10° C./min down to −40° C. A second heating cycle at a heating rate of 10° C./min was performed.
The solid samples were examined using an X-ray diffractometer (Bruker D8 advance). The system is equipped with highly-parallel x-ray beams (Göbel Mirror) and a LynxEye detector. The samples were scanned from 3 to 40° 20 at a step size of 0.02° 20 and a time per step of 19.70 seconds. The tube voltage and current were 45 kV and 40 mA, respectively. The sample was transferred from the sample container onto a zero background XRD-holder and gently ground.
DSC analyses were conducted on a TA Instruments Q200. The calibration standard was indium. A sample of 2.0 mg in weight was placed into a TA DSC pan, and weight was accurately recorded. Crimped pans were used for analysis, and the samples were heated under nitrogen (50 mL/min) at a rate of 10° C./min, up to a final temperature of 260° C.
However, the pXRD pattern obtained after the sample was cooled down to room temperature is similar to the initial material. […] It is estimated from DSC and hot-stage pXRD data that the transition temperature could well be above 100° C. […]

[2] = Thermogravimetric analysis (TGA); format: physicochemical
Method: TGA analyses were carried out on a TA Instruments TGA Q500. Approximately 2.0 mg of samples were placed in a tared platinum or aluminum pan, automatically weighed, and inserted into the TGA furnace. The samples were heated at 10° C./min to a final temperature of 300° C. The purge gas is nitrogen for balance at 40 mL/min and the sample at 60 mL/min, respectively.

glucocorticoid receptor = target: T1, glucocorticoid receptor (Homo sapiens, UniProt P04150); conditions: pre-clinical data, background statement; cited from earlier work
T1 sequence (P04150 1-777): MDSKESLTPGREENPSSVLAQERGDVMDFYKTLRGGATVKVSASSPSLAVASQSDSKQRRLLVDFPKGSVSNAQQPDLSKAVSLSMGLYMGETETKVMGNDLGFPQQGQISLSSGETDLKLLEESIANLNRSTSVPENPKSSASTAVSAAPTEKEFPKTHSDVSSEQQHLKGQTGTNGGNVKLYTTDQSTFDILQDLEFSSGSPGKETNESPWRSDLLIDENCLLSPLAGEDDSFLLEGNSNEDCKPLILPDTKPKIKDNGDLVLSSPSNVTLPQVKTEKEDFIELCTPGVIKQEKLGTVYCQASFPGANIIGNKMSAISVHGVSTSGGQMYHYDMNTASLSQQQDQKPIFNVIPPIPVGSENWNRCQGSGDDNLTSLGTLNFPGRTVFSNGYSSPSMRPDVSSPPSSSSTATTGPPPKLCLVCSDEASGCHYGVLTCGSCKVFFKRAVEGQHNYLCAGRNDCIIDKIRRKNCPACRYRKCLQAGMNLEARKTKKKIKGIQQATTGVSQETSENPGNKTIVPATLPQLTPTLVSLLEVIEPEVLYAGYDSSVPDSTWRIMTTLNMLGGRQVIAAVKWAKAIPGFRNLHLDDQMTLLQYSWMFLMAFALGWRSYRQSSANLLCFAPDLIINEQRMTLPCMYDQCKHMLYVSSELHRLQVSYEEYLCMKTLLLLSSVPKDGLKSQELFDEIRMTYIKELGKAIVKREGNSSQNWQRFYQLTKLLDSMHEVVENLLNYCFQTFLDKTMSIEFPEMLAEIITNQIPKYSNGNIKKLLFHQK

[3] = system: mouse models of inflammatory states; conditions: multiple mouse models; including loss of growth stunting and loss of bone fragility; cited from earlier work

relative stability of polymorphs ([1]; below the transition temperature): most stable form
SMILES: C[C@@H]1C[C@H]2[C@@H]3CCC4=CC(=O)C=C[C@]4(C)C3=CC[C@]2(C)[C@@]1(O)C(=O)CO [Form I, 17α,21-dihydroxy-16α-methylpregna-1,4,9(11)-triene-3,20-dione]

relative stability of polymorphs ([1]; above the transition temperature): most stable
SMILES: C[C@@H]1C[C@H]2[C@@H]3CCC4=CC(=O)C=C[C@]4(C)C3=CC[C@]2(C)[C@@]1(O)C(=O)CO [Form II, 17α,21-dihydroxy-16α-methylpregna-1,4,9(11)-triene-3,20-dione]

TGA weight loss ([2]; FIG. 7, temperature not stated): < 0.5% | TGA weight loss ([2]; below about 200° C.): less than 0.5%
SMILES: C[C@@H]1C[C@H]2[C@@H]3CCC4=CC(=O)C=C[C@]4(C)C3=CC[C@]2(C)[C@@]1(O)C(=O)CO [Form IV, 17α,21-dihydroxy-16α-methylpregna-1,4,9(11)-triene-3,20-dione]

TGA weight loss ([2]; below about 225° C.): less than 1%
SMILES: C[C@@H]1C[C@H]2[C@@H]3CCC4=CC(=O)C=C[C@]4(C)C3=CC[C@]2(C)[C@@]1(O)C(=O)CO [Form VII, 17α,21-dihydroxy-16α-methylpregna-1,4,9(11)-triene-3,20-dione]

SMILES: C[C@@H]1C[C@H]2[C@@H]3CCC4=CC(=O)C=C[C@]4(C)C3=CC[C@]2(C)[C@@]1(O)C(=O)CO [vamorolone, 17α,21-dihydroxy-16α-methylpregna-1,4,9(11)-triene-3,20-dione]
binding to the glucocorticoid receptor (glucocorticoid receptor): binds potently | side effect profiles [3]: dramatically improves side effect profiles
